Laboratory results reported in patent US10774071B2, “PD-1/PD-L1 inhibitors” (Gilead Sciences, Inc., priority 2018, dated 2020).

What was measured:
PD-1/PD-L1 = PD-1/PD-L1 (Homo sapiens (Human), UniProt Q9NZQ7); test: PD-1/PD-L1 biochemical protein-protein interaction assay (ALPHA); format: binding; conditions: 0.3 nM His tagged PD-L1, 2.5 nM biotinylated Fc-PD-1, Table 3B, read-out: IC50 PD-L1-PD1
PD-L1 = PD-L1 (Homo sapiens (Human), UniProt Q9NZQ7); test: PD-L1/PD-L1 dimerization biochemical protein-protein interaction assay (ALPHA); format: binding; conditions: 0.5 nM His tagged PD-L1 and 0.5 nM FLAG tagged PD-L1, Table 4B, read-out: AC50 PDL1 Dimer 1 nM
PD-L1, sequence (Q9NZQ7 19-238): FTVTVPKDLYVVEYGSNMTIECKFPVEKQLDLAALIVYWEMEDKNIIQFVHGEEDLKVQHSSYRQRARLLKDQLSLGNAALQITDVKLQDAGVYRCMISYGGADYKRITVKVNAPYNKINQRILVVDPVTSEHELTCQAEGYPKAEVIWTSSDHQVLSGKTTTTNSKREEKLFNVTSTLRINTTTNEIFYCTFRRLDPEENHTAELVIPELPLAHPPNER
PD-L1, sequence (Q9NZQ7 19-238): as above

PD-1/PD-L1, sequence (Q9NZQ7 19-238): as above

Row | Compound | IC50 (PD-1/PD-L1) [nM] | AC50 (PD-L1) [nM]
1 | COc1nc(-c2cccc(-c3cccc4c3CC[C@@H]4Oc3nc(OC)c(CNC4(C(=O)O)CC5CCC4C5)cc3Cl)c2Cl)ccc1CNC[C@@H]1CCC(=O)N1 (some centres unmarked) [B-139] | 0.064 | 10.2
2 | COc1cc(-c2cccc(-c3cccc4c3CC[C@@H]4Oc3nc(OC)c(CN4CC5(C(=O)O)CCC4CC5)cc3C(F)(F)F)c2Cl)ccc1CNC[C@@H]1CCC(=O)N1 [B-140] | 0.064 | 2.28
3 | COc1cc(-c2cccc(-c3cccc4c3CC[C@@H]4Oc3nc(OC)c(CN4CC(C)(C(=O)O)C4)cc3C(F)(F)F)c2Cl)ccc1CNC[C@@H]1CCC(=O)N1 [B-141] | 0.064 | 5.83
4 | COc1nc(O[C@H]2CCc3c(-c4cccc(-c5cc(F)c(CNC[C@@H]6CCC(=O)N6)c(OC)n5)c4Cl)cccc32)c(Cl)cc1CN1CC(C(=O)O)C1 [B-142] | 0.064 | 38.9
5 | COc1nc(O[C@H]2CCc3c(-c4cccc(-c5ccc(CNC[C@@H]6CCC(=O)N6)c(OC)c5F)c4Cl)cccc32)c(Cl)cc1CN1CC[C@@H](C(=O)O)C1 [B-143] | 0.064 | 42.1
6 | COc1nc(-c2cccc(-c3cccc4c3CC[C@@H]4Oc3nc(OC)c(CN4CC5(CC5)C[C@H]4C(=O)O)cc3C(F)(F)F)c2Cl)ccc1CNC[C@@H]1CCC(=O)N1 [B-144] | 0.064 | 8.98
7 | COc1nc(-c2cccc(-c3cccc4c3CC[C@@H]4Oc3nc(OC)c(CN4CC5CC4(C(=O)O)C5)cc3C(F)(F)F)c2Cl)ccc1CNC[C@@H]1CCC(=O)N1 [B-145] | 0.064 | 5.12
8 | COc1nc(-c2cccc(-c3cccc4c3CC[C@@H]4Oc3nc4c(nc3Cl)c(CN3CC5(CNC(=O)C5)C3)nn4C)c2Cl)ccc1CNC[C@@H]1CCC(=O)N1 [B-146] | 0.41 | 297
9 | COc1nc(-c2cccc(-c3cccc4c3CC[C@@H]4Oc3nc4c(nc3Cl)c(CNC[C@@H]3CCC(=O)N3)nn4C)c2Cl)ccc1CNC[C@@H]1CCC(=O)N1 [B-147] | 0.351 | 178
10 | COc1nc(-c2cccc(-c3cccc4c3CC[C@@H]4Oc3nc(OC)c(CN4CC(C(=O)O)C4)nc3C)c2Cl)ccc1CNC[C@@H]1CCC(=O)N1 [B-148] | 0.064 | 43.2
11 | COc1nc(-c2cccc(-c3cccc4c3CC[C@@H]4Oc3nc(OC)c(CN4CC[C@@H](C(=O)O)C4)nc3C)c2Cl)ccc1CNC[C@@H]1CCC(=O)N1 [B-150] | 0.064 | 65.1
12 | COc1nc(-c2cccc(-c3cccc4c3CC[C@@H]4Oc3nc(OC)c(CNC[C@@H]4CCC(=O)N4)nc3C)c2Cl)ccc1CNC[C@@H]1CCC(=O)N1 [B-151] | 0.072 | 66.2
13 | COc1nc(-c2cccc(-c3cccc4c3CC[C@@H]4Oc3nc(OC)c(CN4CC(C(=O)O)C4)nc3Cl)c2Cl)ccc1CNC[C@@H]1CCC(=O)N1 [B-152] | 0.064 | 12.7
14 | COc1nc(-c2cccc(-c3cccc4c3CC[C@@H]4Oc3nc(OC)c(CN4CC5(C(=O)O)CCC4CC5)nc3Cl)c2Cl)ccc1CNC[C@@H]1CCC(=O)N1 [B-153] | 0.064 | 19
15 | COc1nc(-c2cccc(-c3cccc4c3CC[C@@H]4Oc3nc(OC)c(CN4CC[C@@H](C(=O)O)C4)nc3Cl)c2Cl)ccc1CNC[C@@H]1CCC(=O)N1 [B-154] | 0.064 | 31.5
16 | COc1nc(-c2cccc(-c3cccc4c3CC[C@@H]4Oc3nc(OC)c(CNC[C@@H]4CCC(=O)N4)nc3Cl)c2Cl)ccc1CNC[C@@H]1CCC(=O)N1 [B-155] | 0.22 | 102
17 | COc1nc(-c2cccc(-c3cccc4c3CC[C@@H]4Oc3cnc(CN4CC[C@@H](C(=O)O)C4)c(OC)n3)c2Cl)ccc1CNC[C@@H]1CCC(=O)N1 [B-156] | 0.076 | 324
18 | COC(=O)[C@@H]1CCN(Cc2ncc(O[C@H]3CCc4c(-c5cccc(-c6ccc(CNC[C@@H]7CCC(=O)N7)c(OC)n6)c5Cl)cccc43)nc2OC)C1 [B-157] | 0.195 | 1420
19 | COc1nc(-c2cccc(-c3cccc4c3CC[C@@H]4Oc3nc(OC)c(CN4CCC(C(=O)N=S(C)(N)=O)CC4)cc3Cl)c2Cl)ccc1CNC[C@@H]1CCC(=O)N1 (some centres unmarked) [B-158] | 0.064 | 26.9
20 | COc1nc(-c2cccc(-c3cccc4c3CC[C@@H]4Oc3nc(OC)c(CN4CC(C(=O)N=S(C)(=O)NC(C)=O)C4)cc3Cl)c2Cl)ccc1CNC[C@@H]1CCC(=O)N1 (some centres unmarked) [B-159] | 0.064 | 24.9

Row | Compound | IC50 (PD-1/PD-L1) [nM] | AC50 (PD-L1) [nM]
21 | COc1nc(-c2cccc(-c3cccc4c3CC[C@@H]4Oc3nc(OC)c(CN4CC[C@@H](C(=O)N=S(C)(=O)N(CC(F)(F)F)CC(F)(F)F)C4)cc3Cl)c2Cl)ccc1CNC[C@@H]1CCC(=O)N1 (some centres unmarked) [B-160] | 0.54 | 309
22 | COc1nc(-c2cccc(-c3cccc4c3CC[C@@H]4Oc3nc(OC)c(CN4CC[C@@H](C(=O)N=S(C)(=O)NCC(F)(F)F)C4)cc3Cl)c2Cl)ccc1CNC[C@@H]1CCC(=O)N1 (some centres unmarked) [B-161] | 0.073 | 41.2
23 | COc1nc(-c2cccc(-c3cccc4c3CC[C@@H]4Oc3nc(OC)c(CN4CC[C@@H](C(=O)N=S(C)(=O)NC(=O)C(F)(F)F)C4)cc3Cl)c2Cl)ccc1CNC[C@@H]1CCC(=O)N1 (some centres unmarked) [B-162] | 0.082 | 134
24 | COc1nc(-c2cccc(-c3cccc4c3CC[C@@H]4Oc3nc(OC)c(CN4CC[C@@H](C(=O)N=S(C)(=O)NC(C)=O)C4)cc3Cl)c2Cl)ccc1CNC[C@@H]1CCC(=O)N1 (some centres unmarked) [B-163] | 0.064 | 39.1
25 | COc1nc(-c2cccc(-c3cccc4c3CC[C@@H]4Oc3nc(OC)c(CN4CC[C@@H](C(=O)N=S(C)(N)=O)C4)cc3Cl)c2Cl)ccc1CNC[C@@H]1CCC(=O)N1 (some centres unmarked) [B-164] | 0.27 | 66.9
26 | COc1cc(O[C@H]2CCc3c(-c4cccc(-c5ccc(CNC[C@@H]6CCC(=O)N6)c(OC)n5)c4Cl)cccc32)c(C(F)(F)F)cc1CN1CC[C@H](C(=O)O)C1 [B-165] | 0.064 | 24.6
27 | COc1cc(O[C@H]2CCc3c(-c4cccc(-c5ccc(CNC[C@@H]6CCC(=O)N6)c(OC)n5)c4Cl)cccc32)c(Cl)cc1CN1CC2(C(=O)O)CCC1CC2 [B-166] | 0.064 | 43.7
28 | COc1cc(O[C@H]2CCc3c(-c4cccc(-c5ccc(CNC[C@@H]6CCC(=O)N6)c(OC)n5)c4Cl)cccc32)c(Cl)cc1CN1CC[C@H](C(=O)O)C1 [B-167] | 0.064 | 51.6
29 | COc1nc(-c2cccc(-c3cccc4c3CC[C@@H]4Oc3nc(OC)c(CNC4(C(=O)O)CC4)cc3C(F)(F)F)c2Cl)ccc1CN1CC2(C1)CN(C(C)=O)C2 [B-168] | 0.064 | 11.8
30 | COc1nc(-c2cccc(-c3cccc4c3CC[C@@H]4Oc3nc(OC)c(CNC4(C(=O)O)CC4)cc3C(F)(F)F)c2Cl)ccc1CN1CC2(CNC(=O)C2)C1 [B-169] | 0.064 | 11.1
31 | COc1nc(-c2cccc(-c3cccc4c3CC[C@@H]4Oc3nc(OC)c(CNC4(C(=O)O)CC4)cc3C(F)(F)F)c2Cl)ccc1CN1CC2(CCC(=O)N2)C1 [B-170] | 0.064 | 15.2
32 | COc1nc(-c2cccc(-c3cccc4c3CC[C@@H]4Oc3nc(OC)c(CNC4(C(=O)O)CC4)cc3C(F)(F)F)c2Cl)ccc1CN1CC(C)(O)C1 [B-171] | 0.064 | 15.2
33 | COc1nc(-c2cccc(-c3cccc4c3CC[C@@H]4Oc3nc(OC)c(CN(C)CC(=O)O)cc3Cl)c2Cl)ccc1CNC[C@@H]1CCC(=O)N1 [B-173] | 0.064 | 9.94
34 | COc1nc(-c2cccc(-c3cccc4c3CC[C@@H]4Oc3nc(OC)c(CN4CC5CCC4C5C(=O)O)cc3Cl)c2Cl)ccc1CNC[C@@H]1CCC(=O)N1 (some centres unmarked) [B-174] | 0.064 | 7.97
35 | COc1nc(-c2cccc(-c3cccc4c3CC[C@@H]4Oc3nc(OC)c(CN4C[C@@H](C)[C@H]4C(=O)O)cc3Cl)c2Cl)ccc1CNC[C@@H]1CCC(=O)N1 [B-175] | 0.064 | 14.3
36 | COc1nc(-c2cccc(-c3cccc4c3CC[C@@H]4Oc3nc(OC)c(CN4CCCCC(C(=O)O)C4)cc3Cl)c2Cl)ccc1CNC[C@@H]1CCC(=O)N1 (some centres unmarked) [B-176] | 0.064 | 52.6
37 | COc1nc(-c2cccc(-c3cccc4c3CC[C@@H]4Oc3nc(OC)c(CN4CCCC(C(=O)O)CC4)cc3Cl)c2Cl)ccc1CNC[C@@H]1CCC(=O)N1 (some centres unmarked) [B-177] | 0.064 | 17.9
38 | COc1nc(-c2cccc(-c3cccc4c3CC[C@@H]4Oc3nc(OC)c(CN4CCC(C)(C(=O)O)CC4)cc3Cl)c2Cl)ccc1CNC[C@@H]1CCC(=O)N1 [B-178] | 0.064 | 21.5
39 | CCN(CC(=O)O)Cc1cc(C(F)(F)F)c(O[C@H]2CCc3c(-c4cccc(-c5cc(F)c(CNC[C@@H]6CCC(=O)N6)c(OC)c5)c4Cl)cccc32)nc1OC [B-179] | 0.064 | 3.64
40 | COc1nc(-c2cccc(-c3cccc4c3CC[C@@H]4Oc3nc(OC)c(CN4C[C@H]5C[C@]4(C(=O)O)[C@H]5C)cc3Cl)c2Cl)ccc1CNC[C@@H]1CCC(=O)N1 [B-180] | 0.064 | 12.5
